Experiment [1] deals with IR F96A. In words: Auto-phosphorylation of IR in 293FT cells expressing IR F96A. The experiment is classed as cell-based, human. The note with it: 10 nM, 10 min. Here is the method: (§1) For the activation assay, the short isoform of human IR in pCS2-MYC was used as described previously[20],[49]. Plasmid transfections into 293FT cells were performed with Lipofectamin^TM 2000 (Invitrogen).
(§2) The cells were incubated with the lysis buffer B [50 mM Hepes pH 7.4, 150 mM NaCl, 10% Glycerol, 1% Triton X-100, 1 mM EDTA, 100 mM sodium fluoride, 2 mM sodium orthovanadate, 20 mM sodium pyrophosphate, 0.5 mM dithiothreitol (DTT), 2 mM phenylmethylsulfonyl fluoride (PMSF)] supplemented with cOmplete Protease Inhibitor Cocktail (Roche), PhosSTOP (Sigma), and 25 U/ml turbo nuclease (Accelagen) on ice for 1 h. After centrifuging at 20,817×g at 4 °C for 10 min, the concentrations of cell lysate were measured using Micro BCA Protein Assay Kit (Thermo Scientific). About 50–60 μg total proteins were analyzed by SDS-PAGE and quantitative Western blotting. […] For quantitative western blots, anti-rabbit immunoglobulin G (IgG) (H + L) (WB, 1:5000; Dylight 800 conjugates, Cat. #5151) and anti-mouse IgG (H + L) (WB, 1:5000; Dylight 680 conjugates, Cat. #5470) (Cell Signaling) were used as secondary antibodies. […]

Experiment [2] concerns SREBP1. The experiment can be described thus: Nuclear translocation of SREBP1 in primary mouse hepatocytes. The experiment is classed as cell-based. The note with it: 100 nM, 30 min. Here is the method:
Primary hepatocytes were isolated from 2-month-old male mice with a standard two-step collagenase perfusion procedure as described earlier with some modifications[24],[48],[49]. […] After 1–2 s upon the appearance of white spots in the liver, we cut the portal vein with scissors to wash out blood, and then the liver was perfused with 30 ml of Liver Digest Medium (Thermo Scientific, Cat. #17703034). The dissected liver was gently washed with low-glucose DMEM and transferred to a sterile culture dish containing 15 ml Liver Digest Medium. The isolated liver cells were filtered through the 70 μm cell strainer into a 50 ml tube. After centrifuging at 50×g for 5 min at 4 °C, cells were washed with cold low-glucose DMEM three times. […] After 2 h, the medium was changed to serum-free low-glucose DMEM.
Primary hepatocytes were described in the primary hepatocyte isolation section. […] Cells were fixed with 4% paraformaldehyde for 10 min. The fixed cells were incubated with PBS for 30 min and 3% BSA in PBS with 0.1% Triton X-100 (0.1% PBST) for 1 h, and then treated with anti-SREBP1 antibodies (20B12, Millipore, Cat. #MABS1987, 1:200) in 3% BSA in 0.1% PBST at 4 °C overnight. After being washed, cells were incubated with secondary antibodies (Alexa Fluor 488 goat anti-rabbit, Invitrogen, Cat. #A11008, 1:200) for 1 h. […]

In experiment [3] the test system is IR N15K. In words: Auto-phosphorylation of IR in 293FT cells expressing IR N15K. The experiment is classed as cell-based, human. Here is the method:
as §1, §2

Experiment [4] has as its system IR. In words: Functional IR levels in liver after treatment (Fig. S10e,f). The experiment is classed as in vivo, mouse. On the procedure:
as §2
For the oral glucose tolerance test, mice were fasted for 6 h and their blood glucose levels (T = 0) were measured with tail bleeding using a glucometer (AlphaTRAK). […] Blood glucose levels were measured at the indicated time points after glucose administration. […]

Consider “insulin: native IR ligand used as comparator; Humulin in the in vivo tests”, for which the results for the IR activation result in experiment [1] and in experiment [3] were “defective insulin-dependent activation” and “reduced insulin-dependent IR activation”, respectively. In addition, the “nuclear translocation of SREBP1” value in experiment [2] is “stimulated to the same level by insulin and S597”. Further, the IR downregulation entry in experiment [4] (50U/kg, i.p., 3 consecutive days) is “not significantly downregulated”; in experiment [4] (one hour after insulin 0.1U/kg or S597 0.15U/kg), “not significantly downregulated”.

The values are drawn from publication PMC9508239 (Nature Communications, 2022).
